Assay [1] deals with Transient receptor potential cation channel subfamily V member 1 (Rattus norvegicus) (UniProt O35433). Kind of assay: (§1) Antagonist activity at rat TRPV1 expressed in CHO cells assessed as inhibition of calcium uptake. The format is functional, cell-based. On the set-up: concentration or dose not given beside the values. The settings on record: concentration not given here.
For assay [2] the target is unchanged. Kind of assay: Agonist activity at rat TRPV1 expressed in CHO cells assessed as maximal calcium uptake relative to capsaicin. The format is functional, cell-based.
The target in assay [3] is T1, Transient receptor potential cation channel subfamily V member 1 (Rattus norvegicus, UniProt O35433). Kind of assay: Displacement of [3H]RTX from rat TRPV1 expressed in CHO cells. The assay is classed as cell-based. (Loss of bound radioactivity is the signal in a displacement assay; it reports binding, not function.)
T1 sequence (O35433 whole entry): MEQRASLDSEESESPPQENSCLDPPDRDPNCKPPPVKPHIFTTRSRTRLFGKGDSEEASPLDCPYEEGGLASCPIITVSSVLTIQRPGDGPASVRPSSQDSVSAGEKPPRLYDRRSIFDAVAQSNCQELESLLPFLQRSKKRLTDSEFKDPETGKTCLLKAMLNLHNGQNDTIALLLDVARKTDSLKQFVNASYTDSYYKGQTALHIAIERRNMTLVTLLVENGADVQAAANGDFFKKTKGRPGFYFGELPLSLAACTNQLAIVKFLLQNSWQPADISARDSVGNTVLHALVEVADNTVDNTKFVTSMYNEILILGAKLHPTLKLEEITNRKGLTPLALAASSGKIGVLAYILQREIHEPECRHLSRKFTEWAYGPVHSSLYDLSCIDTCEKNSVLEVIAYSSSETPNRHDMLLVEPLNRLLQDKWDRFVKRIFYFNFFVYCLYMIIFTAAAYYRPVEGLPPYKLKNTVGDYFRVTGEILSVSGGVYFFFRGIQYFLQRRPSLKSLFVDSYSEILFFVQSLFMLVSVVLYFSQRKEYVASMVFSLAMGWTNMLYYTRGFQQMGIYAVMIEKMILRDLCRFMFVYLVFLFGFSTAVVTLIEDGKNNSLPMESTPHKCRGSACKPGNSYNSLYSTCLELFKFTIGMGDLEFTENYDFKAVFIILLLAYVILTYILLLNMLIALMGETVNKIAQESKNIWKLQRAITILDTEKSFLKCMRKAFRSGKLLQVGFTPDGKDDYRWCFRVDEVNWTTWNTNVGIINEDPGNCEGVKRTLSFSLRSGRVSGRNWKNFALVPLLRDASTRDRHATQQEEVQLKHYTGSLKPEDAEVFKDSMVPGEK
Assay [4] has as its target T1, Transient receptor potential cation channel subfamily V member 1. Described as §1. The assay is classed as functional, cell-based.
The target is the same in assay [5]. Kind of assay: Agonist activity at rat TRPV1 expressed in CHO cells assessed as maximal calcium uptake. The format is functional, cell-based.

Sequence of Transient receptor potential cation channel subfamily V member 1 (Rattus norvegicus) (O35433 whole entry): as above

With `COc1cc(CNC(=S)NC(CCc2ccc(C)c(C)c2)COC(=O)C(C)(C)C)cc(Cl)c1O` (configuration not stated), the inhibition in assay [1] was found to be 16%. Also, the Activity in assay [2] amounted to 88%. Besides, the Ki in assay [3] stood at 86 nM.

For `COc1cc(CNC(=S)NC(COC(=O)C(C)(C)C)Cc2ccc(C(C)(C)C)cc2)c(I)cc1O` (configuration not stated), the Ki in assay [4] is 310 nM; in assay [3], 96 nM.

With `COc1cc(CNC(=S)NCC(COC(=O)C(C)(C)C)Cc2ccc(C(C)(C)C)cc2)c(Cl)cc1O` (configuration not stated), the inhibition in assay [1] turned out to be 71%. Further, the Activity in assay [2] was 24%. Further, in assay [3], the Ki amounted to 12.2 nM.

As to `COc1cc(CNC(=S)NC(COC(=O)C(C)(C)C)Cc2ccc(C(C)(C)C)cc2)cc(Br)c1O` (configuration not stated), the inhibition in assay [1] came to 29%. The Activity in assay [2] stood at 57%. This compound showed an inhibition constant (Ki) in assay [3] of 38.2 nM.

With `COc1cc(CNC(=S)NC(COC(=O)C(C)(C)C)Cc2ccc(C(C)(C)C)cc2)cc(I)c1O` (configuration not stated), the Ki was 178 nM in assay [4] and 39.4 nM in assay [3].

Regarding `COc1cc(CNC(=S)NC(CCc2ccc(C(C)(C)C)cc2)COC(=O)C(C)(C)C)c(I)cc1O` (configuration not stated), the Ki in assay [4] was found to be 69 nM; in assay [3] it was 79 nM.

As for `COc1cc(CNC(=S)NC(CCc2ccc(C)c(C)c2)COC(=O)C(C)(C)C)c(Br)cc1O` (configuration not stated), in assay [1], the inhibition is 75%. The Activity in assay [2] amounted to 13%. The compound further had a Ki in assay [3] of 109 nM.

Regarding `COc1cc(CNC(=S)NCC(COC(=O)C(C)(C)C)Cc2ccc(C(C)(C)C)cc2)c(Br)cc1O` (configuration not stated), the Ki in assay [4] worked out at 55 nM; in assay [3], 12.8 nM.

In the case of `CCCCCCCCC(=O)NCc1cc(OC)c(O)cc1I`, the Ki turned out to be 127 nM in assay [4] and 1320 nM in assay [3].

As to `COc1cc(CNC(=S)NCc2ccc(C(C)(C)C)cc2)c(Cl)cc1O`, the inhibition in assay [1] was determined as 81%. For the same compound, the Activity in assay [2] is 33%. Moreover, the Ki in assay [3] was determined as 36.9 nM.

In the case of `COc1cc(CNC(=S)NC(CCc2ccc(C(C)(C)C)cc2)COC(=O)C(C)(C)C)ccc1O` (configuration not stated), the concentration giving a half-maximal response (EC50) in assay [5] worked out at 21.5 nM. Moreover, the affinity in assay [3], expressed as Ki, was 36.5 nM.

For the compound `COc1cc(CNC(=S)NCC(COC(=O)C(C)(C)C)Cc2ccc(C)c(C)c2)cc(Cl)c1O` (configuration not stated), in assay [2], the Activity stood at 93%. This compound also gave a Ki in assay [3] of 30.9 nM.

For `COc1cc(CNC(=S)NC(CCc2ccc(C(C)(C)C)cc2)COC(=O)C(C)(C)C)cc(I)c1O` (configuration not stated), the inhibitory constant (Ki) was found to be 525 nM in assay [4] and 214 nM in assay [3].

Turning to `COc1cc(CNC(=S)NC(CCc2ccc(C)c(C)c2)COC(=O)C(C)(C)C)c(I)cc1O` (configuration not stated), the Ki in assay [4] is 176 nM; in assay [3] it was 140 nM.

For `COc1cc(CNC(=S)NC(CCc2ccc(C)c(C)c2)COC(=O)C(C)(C)C)ccc1O` (configuration not stated), the concentration for a half-maximal effect (EC50) in assay [5] turned out to be 14.7 nM. In assay [3], this compound yielded an inhibition constant Ki of 56 nM.

Regarding `COc1cc(CNC(=S)NCC(COC(=O)C(C)(C)C)Cc2ccc(C(C)(C)C)cc2)cc(Br)c1O` (configuration not stated), in assay [1], the inhibition was found to be 85%. In assay [2], the Activity was found to be 9%. The compound further registered an inhibition constant Ki in assay [3] of 18.8 nM.

For `COc1cc(CNC(=S)NCC(COC(=O)C(C)(C)C)Cc2ccc(C(C)(C)C)cc2)c(I)cc1O` (configuration not stated), the inhibition constant Ki in assay [4] came out at 71 nM; in assay [3], 13.3 nM.

On to `COc1cc(CNC(=S)NCC(COC(=O)C(C)(C)C)Cc2ccc(C)c(C)c2)c(I)cc1O` (configuration not stated), for which the Ki in assay [4] was 23.1 nM; in assay [3] it was 18.9 nM.

Turning to `COc1cc(CNC(=S)NCC(COC(=O)C(C)(C)C)Cc2ccc(C)c(C)c2)c(Cl)cc1O` (configuration not stated), the inhibition in assay [1] amounted to 41%. Moreover, the Activity in assay [2] is 63%. The compound further had a Ki in assay [3] of 24.2 nM.

Regarding `COc1cc(CNC(=S)NCC(COC(=O)C(C)(C)C)Cc2ccc(C(C)(C)C)cc2)cc(Cl)c1O` (configuration not stated), the inhibition in assay [1] was determined as 37%. For the same compound, the Activity in assay [2] came out at 49%. In assay [3], this compound had a Ki of 21.3 nM.

On to `COc1cc(CNC(=S)NC(CCc2ccc(C(C)(C)C)cc2)COC(=O)C(C)(C)C)c(Br)cc1O` (configuration not stated), for which the Ki in assay [4] was 76.1 nM; in assay [3], 75 nM.

Turning to `COc1cc(CNC(=S)NCc2ccc(C(C)(C)C)cc2)cc(I)c1O`, the Ki in assay [4] worked out at 176 nM; in assay [3] it was 342 nM.

In the case of `COc1cc(CNC(=S)NCc2ccc(C(C)(C)C)cc2)cc(Cl)c1O`, the inhibition in assay [1] turned out to be 92%. Moreover, in assay [2], the Activity was 5%. Also, the affinity in assay [3] corresponds to a Ki of 76 nM.

Turning to `COc1cc(CNC(=S)NC(CCc2ccc(C)c(C)c2)COC(=O)C(C)(C)C)c(Cl)cc1O` (configuration not stated), in assay [1], the inhibition was 45%. Moreover, in assay [2], the Activity amounted to 60%. Besides, the inhibitory constant (Ki) in assay [3] was 103 nM.

As for `COc1cc(CNC(=S)NCc2ccc(C(C)(C)C)cc2)c(Br)cc1O`, the Ki in assay [4] was found to be 30.3 nM; in assay [3] it was 42.1 nM.

On to `COc1cc(CNC(=S)NC(COC(=O)C(C)(C)C)Cc2ccc(C(C)(C)C)cc2)c(Cl)cc1O` (configuration not stated), for which, in assay [1], the inhibition was determined as 11%. The Activity in assay [2] was 94%. The compound also had an inhibition constant (Ki) in assay [3] of 41.5 nM.

As to `COc1cc(CNC(=S)NCc2ccc(C(C)(C)C)cc2)c(I)cc1O`, the values for the inhibition constant (Ki) in assay [4] and in assay [3] were 156 nM and 130 nM, respectively.

On to `COc1cc(CNC(=S)NCC(COC(=O)C(C)(C)C)Cc2ccc(C)c(C)c2)cc(Br)c1O` (configuration not stated), for which the inhibition in assay [1] was determined as 70%. Besides, in assay [2], the Activity worked out at 29%. Also, the Ki in assay [3] was determined as 33.1 nM.

As to `COc1cc(CNC(=S)NCC(COC(=O)C(C)(C)C)Cc2ccc(C)c(C)c2)c(Br)cc1O` (configuration not stated), the inhibition in assay [1] was determined as 91%. Besides, the Activity in assay [2] was found to be 13%. In addition, the affinity in assay [3], expressed as Ki, was 19.9 nM.

Turning to `COc1cc(CNC(=S)NC(CCc2ccc(C(C)(C)C)cc2)COC(=O)C(C)(C)C)cc(Cl)c1O` (configuration not stated), the inhibition in assay [1] came out at 47%. In addition, the Activity in assay [2] was found to be 44%. In assay [3], this compound yielded a Ki of 122 nM.

In the case of `COc1cc(CNC(=S)NC(CCc2ccc(C)c(C)c2)COC(=O)C(C)(C)C)cc(Br)c1O` (configuration not stated), the inhibition in assay [1] was 59%. Besides, the Activity in assay [2] amounted to 50%. The Ki in assay [3] was 102 nM.

Regarding `COc1cc(CNC(=S)NC(COC(=O)C(C)(C)C)Cc2ccc(C(C)(C)C)cc2)c(Br)cc1O` (configuration not stated), the inhibition in assay [1] stood at 51%. Also, in assay [2], the Activity was 41%. Further, the inhibitory constant (Ki) in assay [3] stood at 74.9 nM.

As for `COc1cc(CNC(=S)NC(CCc2ccc(C(C)(C)C)cc2)COC(=O)C(C)(C)C)cc(Br)c1O` (configuration not stated), the inhibition in assay [1] turned out to be 73%. In assay [2], the Activity was determined as 19%. In assay [3], this compound gave a Ki of 143 nM.

Turning to `COc1cc(CNC(=S)NCC(COC(=O)C(C)(C)C)Cc2ccc(C(C)(C)C)cc2)cc(I)c1O` (configuration not stated), the results for the inhibition constant (Ki) in assay [4] and in assay [3] were 103 nM and 45 nM, respectively.

As for `COc1cc(CNC(=S)NCc2ccc(C(C)(C)C)cc2)ccc1O`, the EC50 in assay [5] was 2.5 nM. In addition, the affinity in assay [3] corresponds to a Ki of 58.6 nM.

Regarding `COc1cc(CNC(=S)NC(CCc2ccc(C(C)(C)C)cc2)COC(=O)C(C)(C)C)c(Cl)cc1O` (configuration not stated), the figures for the Ki in assay [4] and in assay [3] were 72.2 nM and 79 nM, respectively.

On to `COc1cc(CNC(=S)NCC(COC(=O)C(C)(C)C)Cc2ccc(C)c(C)c2)cc(I)c1O` (configuration not stated), for which the inhibition constant (Ki) in assay [4] is 121 nM; in assay [3], 232 nM.

`COc1cc(CNC(=S)NCc2ccc(C(C)(C)C)cc2)cc(Br)c1O`: the inhibition constant Ki in assay [4] turned out to be 49 nM; in assay [3] it was 51.6 nM.

As for `COc1cc(CNC(=S)NC(CCc2ccc(C)c(C)c2)COC(=O)C(C)(C)C)cc(I)c1O` (configuration not stated), the results for the Ki in assay [4] and in assay [3] were 115 nM and 127 nM, respectively.

With `COc1cc(CNC(=S)NC(COC(=O)C(C)(C)C)Cc2ccc(C(C)(C)C)cc2)cc(Cl)c1O` (configuration not stated), in assay [5], the EC50 was 60 nM. The compound further came in with a Ki in assay [3] of 28.8 nM.

Usually inhibition stands for how much of the control response was suppressed. In general, Ki refers to a dissociation constant, usually derived from enzyme kinetics or from competition with a known ligand. One may read the EC50 as the concentration at which the effect is half-maximal.

The values are drawn from ChEMBL document CHEMBL1138378, “Halogenation of 4-hydroxy-3-methoxybenzyl thiourea TRPV1 agonists showed enhanced antagonism to capsaicin” (Bioorg Med Chem Lett, 2007).
